In article PMC11480411, “Mucosal sugars delineate pyrazine vs pyrazinone autoinducer signaling in Klebsiella oxytoca” (Nature Communications, 2024):

Columns and labels:
Assay in all cases: PRESTO-Tango GPCR screen
Assay type in all cases: cell-based
Conditions in all cases: 100 µM
CCKBR = molecular target: T1, CCKBR (Homo sapiens, UniProt P32239)
T1 construct: purchased PRESTO-Tango GPCR kit (Roth lab / Addgene)
Protocol: (§1) The PRESTO-Tango analyses were performed as previously published. Briefly, HTLA cells, a HEK293 cell line that stably expresses β-arrestin-TEV and tTA-Luciferase (a kind gift from Gilad Barnea, Brown University), were plated in 96-well tissue culture plates (Eppendorf) in DMEM containing 10% FBS and 1% Penicillin/Streptomycin. One day after plating (after reaching approximately 90% confluence), 200 ng per well GPCR-Tango plasmids[37] in 20 μL DMEM were individually mixed with 400 ng polyethylenimine (Polysciences) in an equal volume of DMEM and incubated for 20 min at room temperature before adding the transfection mixture to the HTLA cells. 16-24 h after transfection, medium was replaced with 180 μL fresh DMEM containing 1% Penicillin/Streptomycin and 10 mM HEPES and 20 μL of 3 or 3-Homo to reach a final concentration of 100 μM. Supernatants were aspirated 20 h after stimulation and 50 μl per well of Bright-Glo solution (Promega) diluted 20-fold with PBS containing 20 mM HEPES was added into each well. After 15 min incubation at room temperature, luminescence was quantified using a Spectramax i3x microplate reader (Molecular Devices). Activation fold for each sample was calculated by dividing relative luminescence units (RLU) for each condition by RLUs from PBS control. Dose response curves of each chemical were performed in a similar way with varying the ligand concentration from 10^−4 M to 10^−15 M.

CCR3 = molecular target: T2, CCR3 (Homo sapiens, UniProt P51677)
T2 construct: purchased PRESTO-Tango GPCR kit (Roth lab / Addgene)
Protocol: as §1

CNR1 = molecular target: T3, CNR1 (Homo sapiens, UniProt P21554)
T3 construct: purchased PRESTO-Tango GPCR kit (Roth lab / Addgene)
Protocol: as §1

CXCR2 = molecular target: T4, CXCR2 (Homo sapiens, UniProt P25025)
T4 construct: purchased PRESTO-Tango GPCR kit (Roth lab / Addgene)
T4 sequence (P25025 whole entry): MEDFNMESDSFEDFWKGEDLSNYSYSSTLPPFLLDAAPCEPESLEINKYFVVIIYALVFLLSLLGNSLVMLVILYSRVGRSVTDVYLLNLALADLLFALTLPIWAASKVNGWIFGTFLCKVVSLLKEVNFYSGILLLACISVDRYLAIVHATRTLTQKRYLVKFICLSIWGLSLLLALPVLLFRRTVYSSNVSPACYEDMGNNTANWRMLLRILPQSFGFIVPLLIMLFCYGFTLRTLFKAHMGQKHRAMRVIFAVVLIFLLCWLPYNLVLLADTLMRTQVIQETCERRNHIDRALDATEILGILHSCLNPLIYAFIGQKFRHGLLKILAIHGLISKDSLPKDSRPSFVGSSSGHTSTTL
Protocol: as §1

CXCR5 = molecular target: T5, CXCR5 (Homo sapiens, UniProt P32302)
T5 construct: purchased PRESTO-Tango GPCR kit (Roth lab / Addgene)
Protocol: as §1

CXCR7 = molecular target: T6, CXCR7 (Homo sapiens, UniProt P25106)
T6 construct: purchased PRESTO-Tango GPCR kit (Roth lab / Addgene)
Protocol: as §1

DRD4 = molecular target: T7, DRD4 (Homo sapiens, UniProt P21917)
T7 construct: purchased PRESTO-Tango GPCR kit (Roth lab / Addgene)
Protocol: as §1

F2RL3 = molecular target: T8, F2RL3 (Homo sapiens, UniProt Q96RI0)
T8 construct: purchased PRESTO-Tango GPCR kit (Roth lab / Addgene)
Protocol: as §1

GABBR1 = molecular target: T9, GABBR1 (Homo sapiens, UniProt Q9UBS5)
T9 construct: purchased PRESTO-Tango GPCR kit (Roth lab / Addgene)
T9 sequence (Q9UBS5 20-961): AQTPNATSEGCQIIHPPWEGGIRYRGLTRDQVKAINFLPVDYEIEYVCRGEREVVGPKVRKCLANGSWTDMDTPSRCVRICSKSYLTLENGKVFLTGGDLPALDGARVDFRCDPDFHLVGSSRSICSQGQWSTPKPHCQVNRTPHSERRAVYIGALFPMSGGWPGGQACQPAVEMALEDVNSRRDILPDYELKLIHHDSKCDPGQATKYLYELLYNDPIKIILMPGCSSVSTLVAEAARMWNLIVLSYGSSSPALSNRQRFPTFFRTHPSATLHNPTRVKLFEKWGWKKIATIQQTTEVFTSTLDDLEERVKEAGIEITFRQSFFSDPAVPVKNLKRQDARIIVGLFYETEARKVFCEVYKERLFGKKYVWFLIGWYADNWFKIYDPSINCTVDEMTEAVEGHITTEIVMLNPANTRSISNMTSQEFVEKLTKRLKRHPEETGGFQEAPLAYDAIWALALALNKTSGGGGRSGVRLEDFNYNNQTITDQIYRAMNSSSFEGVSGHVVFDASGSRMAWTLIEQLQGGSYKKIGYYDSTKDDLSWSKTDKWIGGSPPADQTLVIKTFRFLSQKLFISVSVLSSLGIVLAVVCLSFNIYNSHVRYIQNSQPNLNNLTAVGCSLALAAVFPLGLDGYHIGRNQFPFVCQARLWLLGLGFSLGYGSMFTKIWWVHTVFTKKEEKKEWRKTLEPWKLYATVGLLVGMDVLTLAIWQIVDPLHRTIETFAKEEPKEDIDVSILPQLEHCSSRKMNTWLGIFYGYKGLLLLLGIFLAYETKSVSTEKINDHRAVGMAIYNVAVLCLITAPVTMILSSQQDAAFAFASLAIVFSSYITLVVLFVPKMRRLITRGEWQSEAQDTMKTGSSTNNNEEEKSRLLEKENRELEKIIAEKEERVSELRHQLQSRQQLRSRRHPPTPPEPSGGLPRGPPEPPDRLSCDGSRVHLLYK
Protocol: as §1

GAL1 = molecular target: T10, GAL1 (Homo sapiens, UniProt P47211)
T10 construct: purchased PRESTO-Tango GPCR kit (Roth lab / Addgene)
Protocol: as §1

GLP2R = molecular target: T11, GLP2R (Homo sapiens, UniProt O95838)
T11 construct: purchased PRESTO-Tango GPCR kit (Roth lab / Addgene)
T11 sequence (O95838 whole entry): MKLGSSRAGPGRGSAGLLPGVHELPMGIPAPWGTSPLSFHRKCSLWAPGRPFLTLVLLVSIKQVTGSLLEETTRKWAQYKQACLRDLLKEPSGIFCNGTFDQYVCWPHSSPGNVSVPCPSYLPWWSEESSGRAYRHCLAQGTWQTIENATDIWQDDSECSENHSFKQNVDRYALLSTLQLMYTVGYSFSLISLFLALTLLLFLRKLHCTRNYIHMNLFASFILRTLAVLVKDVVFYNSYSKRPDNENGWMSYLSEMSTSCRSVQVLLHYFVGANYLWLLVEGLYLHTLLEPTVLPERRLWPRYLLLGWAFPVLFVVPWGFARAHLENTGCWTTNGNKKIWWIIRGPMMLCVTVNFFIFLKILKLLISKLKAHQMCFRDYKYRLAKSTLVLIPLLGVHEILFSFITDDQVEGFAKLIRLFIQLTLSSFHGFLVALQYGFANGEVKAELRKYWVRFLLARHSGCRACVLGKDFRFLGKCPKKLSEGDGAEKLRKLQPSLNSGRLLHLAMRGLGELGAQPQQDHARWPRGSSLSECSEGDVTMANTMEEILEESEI
Protocol: as §1

GPR110 = molecular target: T12, GPR110 (Homo sapiens, UniProt Q5T601)
T12 construct: purchased PRESTO-Tango GPCR kit (Roth lab / Addgene)
Protocol: as §1

GPR126 = molecular target: T13, GPR126 (Homo sapiens, UniProt Q86SQ4)
T13 construct: purchased PRESTO-Tango GPCR kit (Roth lab / Addgene)
Protocol: as §1

GPR146 = molecular target: T14, GPR146 (Homo sapiens, UniProt Q96CH1)
T14 construct: purchased PRESTO-Tango GPCR kit (Roth lab / Addgene)
Protocol: as §1

GPR150 = molecular target: T15, GPR150 (Homo sapiens, UniProt Q8NGU9)
T15 construct: purchased PRESTO-Tango GPCR kit (Roth lab / Addgene)
T15 sequence (Q8NGU9 whole entry): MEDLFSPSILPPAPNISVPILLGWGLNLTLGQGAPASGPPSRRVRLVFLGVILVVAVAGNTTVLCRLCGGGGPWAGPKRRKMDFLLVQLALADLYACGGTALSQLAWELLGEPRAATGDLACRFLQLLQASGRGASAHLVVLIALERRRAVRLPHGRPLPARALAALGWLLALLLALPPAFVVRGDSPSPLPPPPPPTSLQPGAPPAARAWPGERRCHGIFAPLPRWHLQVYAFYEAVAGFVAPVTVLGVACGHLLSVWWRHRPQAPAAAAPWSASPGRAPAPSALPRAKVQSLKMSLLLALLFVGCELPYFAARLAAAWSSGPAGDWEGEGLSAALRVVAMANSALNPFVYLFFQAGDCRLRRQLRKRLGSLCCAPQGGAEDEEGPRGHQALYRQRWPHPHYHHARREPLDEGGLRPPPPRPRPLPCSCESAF
Protocol: as §1

GPR161 = molecular target: T16, GPR161 (Homo sapiens, UniProt Q8N6U8)
T16 construct: purchased PRESTO-Tango GPCR kit (Roth lab / Addgene)
Protocol: as §1

GPR162 = molecular target: T17, GPR162 (Homo sapiens, UniProt Q16538)
T17 construct: purchased PRESTO-Tango GPCR kit (Roth lab / Addgene)
Protocol: as §1

GPR56 = molecular target: T18, GPR56 (Homo sapiens, UniProt Q9Y653)
T18 construct: purchased PRESTO-Tango GPCR kit (Roth lab / Addgene)
T18 sequence (Q9Y653 26-693): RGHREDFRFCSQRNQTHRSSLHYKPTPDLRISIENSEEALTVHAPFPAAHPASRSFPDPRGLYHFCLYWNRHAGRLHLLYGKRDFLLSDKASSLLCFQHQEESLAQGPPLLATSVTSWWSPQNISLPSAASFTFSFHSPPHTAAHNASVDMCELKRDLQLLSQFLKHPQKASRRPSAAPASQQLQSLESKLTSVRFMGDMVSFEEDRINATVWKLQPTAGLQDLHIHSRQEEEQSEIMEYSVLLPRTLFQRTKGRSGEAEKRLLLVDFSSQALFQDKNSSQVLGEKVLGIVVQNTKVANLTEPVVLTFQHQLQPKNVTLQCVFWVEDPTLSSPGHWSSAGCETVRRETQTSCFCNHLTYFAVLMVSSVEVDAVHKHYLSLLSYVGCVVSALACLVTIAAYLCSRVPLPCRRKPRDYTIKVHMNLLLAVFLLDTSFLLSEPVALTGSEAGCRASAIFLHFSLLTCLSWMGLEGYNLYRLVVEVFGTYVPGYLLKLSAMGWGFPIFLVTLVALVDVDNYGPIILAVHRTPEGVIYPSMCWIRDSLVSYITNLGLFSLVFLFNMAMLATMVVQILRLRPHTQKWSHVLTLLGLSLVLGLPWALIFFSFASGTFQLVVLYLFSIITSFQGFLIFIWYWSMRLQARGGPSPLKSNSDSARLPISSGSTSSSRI
Protocol: as §1

GPR63 = molecular target: T19, GPR63 (Homo sapiens, UniProt Q9BZJ6)
T19 construct: purchased PRESTO-Tango GPCR kit (Roth lab / Addgene)
Protocol: as §1

GPR84 = molecular target: T20, GPR84 (Homo sapiens, UniProt Q9NQS5)
T20 construct: purchased PRESTO-Tango GPCR kit (Roth lab / Addgene)
T20 sequence (Q9NQS5 whole entry): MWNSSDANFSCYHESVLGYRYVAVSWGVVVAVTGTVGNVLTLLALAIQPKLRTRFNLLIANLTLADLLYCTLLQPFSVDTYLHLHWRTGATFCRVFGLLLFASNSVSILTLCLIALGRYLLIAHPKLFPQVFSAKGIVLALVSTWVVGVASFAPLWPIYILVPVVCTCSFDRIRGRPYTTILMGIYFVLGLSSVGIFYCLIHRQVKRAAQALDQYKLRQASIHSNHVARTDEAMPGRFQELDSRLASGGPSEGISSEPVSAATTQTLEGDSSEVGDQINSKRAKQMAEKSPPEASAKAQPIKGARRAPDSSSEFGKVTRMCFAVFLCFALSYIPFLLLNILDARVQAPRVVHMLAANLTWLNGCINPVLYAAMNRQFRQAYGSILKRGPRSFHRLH
Protocol: as §1

GPRC5D = molecular target: T21, GPRC5D (Homo sapiens, UniProt Q9NZD1)
T21 construct: purchased PRESTO-Tango GPCR kit (Roth lab / Addgene)
Protocol: as §1

GRM1 = molecular target: T22, GRM1 (Homo sapiens, UniProt Q13255)
T22 construct: purchased PRESTO-Tango GPCR kit (Roth lab / Addgene)
Protocol: as §1

GRM2 = molecular target: T23, GRM2 (Homo sapiens, UniProt Q14416)
T23 construct: purchased PRESTO-Tango GPCR kit (Roth lab / Addgene)
Protocol: as §1

GRM8 = molecular target: T24, GRM8 (Homo sapiens, UniProt O00222)
T24 construct: purchased PRESTO-Tango GPCR kit (Roth lab / Addgene)
Protocol: as §1

HTR1E = molecular target: T25, HTR1E (Homo sapiens, UniProt P28566)
T25 construct: purchased PRESTO-Tango GPCR kit (Roth lab / Addgene)
Protocol: as §1

LHCGR = molecular target: T26, LHCGR (Homo sapiens, UniProt P22888)
T26 construct: purchased PRESTO-Tango GPCR kit (Roth lab / Addgene)
Protocol: as §1

MCHR1 = molecular target: T27, MCHR1 (Homo sapiens, UniProt Q99705)
T27 construct: purchased PRESTO-Tango GPCR kit (Roth lab / Addgene)
T27 sequence (Q99705 whole entry): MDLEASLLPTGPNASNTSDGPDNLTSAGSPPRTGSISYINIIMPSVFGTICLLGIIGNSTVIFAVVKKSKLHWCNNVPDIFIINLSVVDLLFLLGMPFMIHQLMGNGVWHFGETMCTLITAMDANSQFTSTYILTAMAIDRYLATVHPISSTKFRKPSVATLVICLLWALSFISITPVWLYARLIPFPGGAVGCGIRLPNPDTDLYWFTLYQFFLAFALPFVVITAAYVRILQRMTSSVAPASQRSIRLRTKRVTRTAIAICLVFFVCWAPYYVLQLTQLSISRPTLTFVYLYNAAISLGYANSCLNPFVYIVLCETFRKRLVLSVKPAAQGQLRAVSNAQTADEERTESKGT
Protocol: as §1

MRGPRX1 = molecular target: T28, MRGPRX1 (Homo sapiens, UniProt Q96LB2)
T28 construct: purchased PRESTO-Tango GPCR kit (Roth lab / Addgene)
Protocol: as §1

MRGPRX4 = molecular target: T29, MRGPRX4 (Homo sapiens, UniProt Q96LA9)
T29 construct: purchased PRESTO-Tango GPCR kit (Roth lab / Addgene)
Protocol: as §1

NPBW1 = molecular target: T30, NPBW1 (Homo sapiens, UniProt P48145)
T30 construct: purchased PRESTO-Tango GPCR kit (Roth lab / Addgene)
T30 sequence (P48145 whole entry): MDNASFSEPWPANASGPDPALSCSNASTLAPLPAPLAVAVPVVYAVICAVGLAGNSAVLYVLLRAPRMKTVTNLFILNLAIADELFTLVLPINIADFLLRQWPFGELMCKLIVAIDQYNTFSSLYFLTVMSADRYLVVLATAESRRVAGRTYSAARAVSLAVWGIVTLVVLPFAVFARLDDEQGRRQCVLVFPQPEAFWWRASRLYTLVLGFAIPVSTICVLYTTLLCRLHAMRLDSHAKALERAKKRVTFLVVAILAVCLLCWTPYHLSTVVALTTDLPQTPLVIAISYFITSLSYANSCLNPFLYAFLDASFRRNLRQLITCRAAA
Protocol: as §1

NPFF2 = molecular target: T31, NPFF2 (Homo sapiens, UniProt Q9Y5X5)
T31 construct: purchased PRESTO-Tango GPCR kit (Roth lab / Addgene)
T31 sequence (Q9Y5X5 whole entry): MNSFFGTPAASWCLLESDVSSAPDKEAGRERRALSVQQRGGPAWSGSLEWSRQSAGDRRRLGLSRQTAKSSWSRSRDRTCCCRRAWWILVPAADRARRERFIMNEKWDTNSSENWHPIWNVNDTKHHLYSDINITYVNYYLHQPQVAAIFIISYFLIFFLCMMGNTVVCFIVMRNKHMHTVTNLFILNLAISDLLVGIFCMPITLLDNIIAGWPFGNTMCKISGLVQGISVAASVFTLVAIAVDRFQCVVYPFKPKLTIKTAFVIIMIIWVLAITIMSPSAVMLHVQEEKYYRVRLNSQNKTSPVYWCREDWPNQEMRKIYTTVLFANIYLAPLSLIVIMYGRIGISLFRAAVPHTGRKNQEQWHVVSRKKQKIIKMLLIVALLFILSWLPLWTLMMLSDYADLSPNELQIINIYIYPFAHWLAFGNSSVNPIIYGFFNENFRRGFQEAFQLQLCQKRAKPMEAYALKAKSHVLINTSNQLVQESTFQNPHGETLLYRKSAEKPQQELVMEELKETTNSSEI
Protocol: as §1

OPN5 = molecular target: T32, OPN5 (Homo sapiens, UniProt Q6U736)
T32 construct: purchased PRESTO-Tango GPCR kit (Roth lab / Addgene)
T32 sequence (Q6U736 whole entry): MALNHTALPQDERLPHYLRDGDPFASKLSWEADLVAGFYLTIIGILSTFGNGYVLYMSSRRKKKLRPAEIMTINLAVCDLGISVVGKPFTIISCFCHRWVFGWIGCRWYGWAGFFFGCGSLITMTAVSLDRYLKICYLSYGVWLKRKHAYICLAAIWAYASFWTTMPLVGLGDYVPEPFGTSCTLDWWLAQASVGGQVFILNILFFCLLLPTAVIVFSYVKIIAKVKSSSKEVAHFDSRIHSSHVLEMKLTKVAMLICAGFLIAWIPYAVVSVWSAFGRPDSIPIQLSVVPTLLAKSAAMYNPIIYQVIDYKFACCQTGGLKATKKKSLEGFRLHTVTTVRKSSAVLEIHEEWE
Protocol: as §1

PTGER1 = molecular target: T33, PTGER1 (Homo sapiens, UniProt P34995)
T33 construct: purchased PRESTO-Tango GPCR kit (Roth lab / Addgene)
Protocol: as §1

PTH1R = molecular target: T34, PTH1R (Homo sapiens, UniProt Q03431)
T34 construct: purchased PRESTO-Tango GPCR kit (Roth lab / Addgene)
Protocol: as §1

S1PR5 = molecular target: T35, S1PR5 (Homo sapiens, UniProt Q9H228)
T35 construct: purchased PRESTO-Tango GPCR kit (Roth lab / Addgene)
Protocol: as §1

TAAR6 = molecular target: T36, TAAR6 (Homo sapiens, UniProt Q96RI8)
T36 construct: purchased PRESTO-Tango GPCR kit (Roth lab / Addgene)
Protocol: as §1

CC(C)Cc1ncc(CCCCNC(=N)N)[nH]c1=O [3-Homo]
GPCR activation (heatmap value) (CCKBR): 0.2356 | GPCR activation (heatmap value) (CCR3): -0.05608 | GPCR activation (heatmap value) (CNR1): -0.2406 | GPCR activation (heatmap value) (CXCR2): 0.01869 | GPCR activation (heatmap value) (CXCR5): -0.9057 | GPCR activation (heatmap value) (CXCR7): -1.352 | GPCR activation (heatmap value) (DRD4): -0.04181 | GPCR activation (heatmap value) (F2RL3): -0.0006117 | GPCR activation (heatmap value) (GABBR1): -1.048 | GPCR activation (heatmap value) (GAL1): -0.2703 | GPCR activation (heatmap value) (GLP2R): -0.3479 | GPCR activation (heatmap value) (GPR110): -1.142 | GPCR activation (heatmap value) (GPR126): 0.0787 | GPCR activation (heatmap value) (GPR146): -0.8234 | GPCR activation (heatmap value) (GPR150): -0.9768 | GPCR activation (heatmap value) (GPR161): 0.03788 | GPCR activation (heatmap value) (GPR162): -0.5864 | GPCR activation (heatmap value) (GPR56): -0.2489 | GPCR activation (heatmap value) (GPR63): 0.374 | GPCR activation (heatmap value) (GPR84): 0.1656 | GPCR activation (heatmap value) (GPRC5D): 0.05555 | GPCR activation (heatmap value) (GRM1): -0.1347 | GPCR activation (heatmap value) (GRM2): -1.403 | GPCR activation (heatmap value) (GRM8): 0.556 | GPCR activation (heatmap value) (HTR1E): 0.001914 | GPCR activation (heatmap value) (LHCGR): 0.1782 | GPCR activation (heatmap value) (MCHR1): -1.3275 | GPCR activation (heatmap value) (MRGPRX1): 0.1239 | GPCR activation (heatmap value) (MRGPRX4): 0.4562 | GPCR activation (heatmap value) (NPBW1): -0.4089 | GPCR activation (heatmap value) (NPFF2): -0.3895 | GPCR activation (heatmap value) (OPN5): -0.4496 | GPCR activation (heatmap value) (PTGER1): 0.737 | GPCR activation (heatmap value) (PTH1R): -0.1159 | GPCR activation (heatmap value) (S1PR5): -0.7802 | GPCR activation (heatmap value) (TAAR6): 0.5054

CC(C)Cc1ncc(CCCNC(=N)N)[nH]c1=O [compound 3]
GPCR activation (heatmap value) (CCKBR): 0.2979 | GPCR activation (heatmap value) (CCR3): -0.6954 | GPCR activation (heatmap value) (CNR1): 0.2678 | GPCR activation (heatmap value) (CXCR2): 0.3766 | GPCR activation (heatmap value) (CXCR5): 0.2848 | GPCR activation (heatmap value) (CXCR7): -0.2802 | GPCR activation (heatmap value) (DRD4): 0.4609 | GPCR activation (heatmap value) (F2RL3): 0.3497 | GPCR activation (heatmap value) (GABBR1): 0.7353 | GPCR activation (heatmap value) (GAL1): -0.09983 | GPCR activation (heatmap value) (GLP2R): 0.1898 | GPCR activation (heatmap value) (GPR110): 0.3323 | GPCR activation (heatmap value) (GPR126): -0.3797 | GPCR activation (heatmap value) (GPR146): -0.2269 | GPCR activation (heatmap value) (GPR150): -0.9206 | GPCR activation (heatmap value) (GPR161): 0.1774 | GPCR activation (heatmap value) (GPR162): 0.329 | GPCR activation (heatmap value) (GPR56): -0.03075 | GPCR activation (heatmap value) (GPR63): 0.05297 | GPCR activation (heatmap value) (GPR84): -0.1947 | GPCR activation (heatmap value) (GPRC5D): -1.121 | GPCR activation (heatmap value) (GRM1): 0.374 | GPCR activation (heatmap value) (GRM2): -1.186 | GPCR activation (heatmap value) (GRM8): -0.7817 | GPCR activation (heatmap value) (HTR1E): 0.5345 | GPCR activation (heatmap value) (LHCGR): 0.1147 | GPCR activation (heatmap value) (MCHR1): -0.2593 | GPCR activation (heatmap value) (MRGPRX1): -1.215 | GPCR activation (heatmap value) (MRGPRX4): 0.07015 | GPCR activation (heatmap value) (NPBW1): -0.8992 | GPCR activation (heatmap value) (NPFF2): -0.5121 | GPCR activation (heatmap value) (OPN5): -1.123 | GPCR activation (heatmap value) (PTGER1): -0.585 | GPCR activation (heatmap value) (PTH1R): 0.5796 | GPCR activation (heatmap value) (S1PR5): 0 | GPCR activation (heatmap value) (TAAR6): 0.2505
